We go through 13 molecules from ChEMBL document CHEMBL1201862, “PubChem BioAssay data set” (2004).

Test systems include SF-295; SK-MEL-5; ACHN; HT-29; SF-539; NCI-H23; COLO 205; A549; SW-620; HCC 2998; M14; K562; SNB-78; HCT-15; EKVX; HL-60; RXF 393; PC-3; MDA-MB-435; NCI/ADR-RES.
What all share (test): growth of human tumour cells (NCI), 48 h

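Test compounds were applied to cells in 96-well plates for 48 hours at 5 doses. GI50 = concentration required for 50% inhibition of growth.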 Active and inactive are the calls of the source. Rule as the data show it: active = GI50 up to about 1.1 µM and inactive = higher.

Regarding `O=C(O)[C@@H]1CCCC[C@@H]1C(=O)N(C1CCCCC1)C1CCCCC1`, the GI50 in the assay with SF-295, in the assay on SK-MEL-5, with ACHN, with HT-29, with SF-539 and with NCI-H23 was > 100 µM (inactive) each time. For the same molecule, the GI50 in the assay on COLO 205, with A549, in the assay with SW-620, in the assay on HCC 2998, in the assay on M14 and in the assay with K562 was > 100 µM (inactive) throughout. The GI50 was > 100 µM (inactive) in the assay on SNB-78, greater than 100 µM in the assay with HCT-15, > 100 µM (inactive) in the assay with EKVX and > 100 µM (inactive) in the assay on HL-60.

Consider `CN(C)CC(C)(C)C(=O)/C=C/c1ccccc1`, for which the GI50 in the assay on SF-295 is 17.5 µM (inactive); in the assay on SK-MEL-5 it was 16.2 µM (inactive); with ACHN it was 17.9 µM (inactive); in the assay on HT-29, 15.8 µM (inactive); in the assay on SF-539, 16.6 µM (inactive); in the assay with NCI-H23, 19.9 µM (inactive). Also, the GI50 was 11.9 µM (inactive) with RXF 393; 13.3 µM (inactive) in the assay with COLO 205; 28.8 µM (inactive) in the assay with A549; 14.5 µM (inactive) with SW-620; 13.8 µM (inactive) in the assay with M14; 5.13 µM (inactive) in the assay with K562. Besides, the GI50 in the assay with SNB-78 is 14.7 µM (inactive); in the assay with HCT-15, 12.6 µM; with EKVX it was 17.6 µM (inactive); in the assay with HL-60 it was 5.58 µM (inactive).

In the case of `CCOC(=O)C1C(NC(N)=O)N(Cc2ccccc2)C(=O)N1Cc1ccccc1` (configuration not stated), the GI50 in the assay on SF-295 was > 100 µM (inactive); with SK-MEL-5 it was > 100 µM (inactive); in the assay on ACHN it was > 100 µM (inactive); with HT-29, > 100 µM (inactive); with SF-539 it was > 100 µM (inactive); with NCI-H23 it was > 10 µM (inactive). In addition, the GI50 in the assay with COLO 205, in the assay on A549, in the assay with SW-620, in the assay on HCC 2998, with M14 and in the assay on K562 was > 100 µM (inactive) each time. In addition, the GI50 with SNB-78 is 15.4 µM (inactive); with HCT-15 it was greater than 100 µM; in the assay on EKVX, > 100 µM (inactive); in the assay with HL-60, > 100 µM (inactive).

Regarding `O=C1N2Cc3c4ccc5c3CN3C(=O)N6Cc7c(ccc(c7CN1C6(c1ccccc1)C23c1ccccc1)OCCOCCNCCOCCO4)OCCOCCNCCOCCO5` (configuration not stated), the GI50 with SF-295 is 65.5 µM (inactive); in the assay on SK-MEL-5 it was 55.2 µM (inactive); in the assay with ACHN, 22.5 µM (inactive); in the assay on HT-29, 13.9 µM (inactive); in the assay with SF-539, 56.9 µM (inactive); in the assay with NCI-H23 it was 70.5 µM (inactive). In addition, the GI50 is 33.2 µM (inactive) with RXF 393; 28.6 µM (inactive) with A549; 18 µM (inactive) with SW-620; 34.9 µM (inactive) in the assay with HCC 2998; 21.8 µM (inactive) in the assay with M14; 69.7 µM (inactive) in the assay with K562. Besides, the GI50 was > 100 µM (inactive) in the assay on SNB-78, 28.3 µM in the assay on HCT-15 and > 100 µM (inactive) with EKVX.

For `Cc1ccc(S(=O)(=O)C(C#N)c2nc3ccccc3nc2-n2ccnc2)cc1` (configuration not stated), the GI50 in the assay on SF-295, in the assay on SK-MEL-5, with ACHN, in the assay on HT-29, in the assay with SF-539 and in the assay with NCI-H23 was > 100 µM (inactive) each time. Further, the GI50 in the assay on COLO 205, in the assay with A549, in the assay on HCC 2998, in the assay with M14, with K562 and in the assay on SNB-78 was > 100 µM (inactive) throughout. Also, the GI50 in the assay on HCT-15 was greater than 100 µM; with EKVX it was > 100 µM (inactive); with HL-60, > 100 µM (inactive).

Take `O=c1c2ccccc2nc2n1-c1ccccc1SC2`: the GI50 is > 100 µM (inactive) with SF-295; 30.1 µM (inactive) in the assay on SK-MEL-5; 54.7 µM (inactive) in the assay on ACHN; > 100 µM (inactive) in the assay with HT-29; > 100 µM (inactive) in the assay with SF-539; 38.1 µM (inactive) in the assay with NCI-H23. Moreover, the GI50 in the assay on RXF 393 was 58.3 µM (inactive); in the assay with COLO 205, 92.9 µM (inactive); in the assay on A549, > 100 µM (inactive); with SW-620, > 100 µM (inactive); in the assay with HCC 2998, 81.1 µM (inactive); in the assay with M14, 50.5 µM (inactive). The GI50 in the assay with K562 was 36.7 µM (inactive); in the assay with SNB-78, > 100 µM (inactive); in the assay with HCT-15, 54.1 µM; in the assay with EKVX, 25.5 µM (inactive).

Consider `CCOC(=O)C1=C(Nc2ccc(NC3=C(C(=O)OCC)C(=O)CS3)cc2)SCC1=O`, for which the GI50 in the assay on SF-295 is 26.5 µM (inactive); in the assay with SK-MEL-5 it was 19.1 µM (inactive); with ACHN it was 22 µM (inactive); in the assay on HT-29 it was 19.3 µM (inactive); in the assay with SF-539, 20.1 µM (inactive); in the assay with NCI-H23, 10 µM (inactive). Besides, the GI50 is 16 µM (inactive) with RXF 393; 17.7 µM (inactive) in the assay with COLO 205; 30.3 µM (inactive) in the assay on A549; 25.9 µM (inactive) with SW-620; 20.4 µM (inactive) with M14; 30.5 µM (inactive) in the assay with K562. The GI50 was 33.6 µM (inactive) in the assay on SNB-78, 18.5 µM with HCT-15, 35.2 µM (inactive) in the assay on EKVX and 32.7 µM (inactive) in the assay with HL-60.

Turning to `COc1cc(C)c2c(c1C)OC(=O)c1c(C)c(Cl)c(O)c(C=O)c1O2`, the GI50 is > 10 µM (inactive) in the assay with SF-295; 60.1 µM (inactive) in the assay with SK-MEL-5; 14.7 µM (inactive) in the assay with ACHN; 20.4 µM (inactive) in the assay with HT-29; 12.2 µM (inactive) with SF-539; 14.7 µM (inactive) in the assay with NCI-H23. The GI50 with COLO 205 was 29.2 µM (inactive); with A549 it was 12.8 µM (inactive); in the assay on SW-620, 31.8 µM (inactive); in the assay on HCC 2998 it was 19.5 µM (inactive); in the assay with M14, 18.4 µM (inactive); in the assay with K562, 18.5 µM (inactive). Further, the GI50 was 13.2 µM (inactive) in the assay with SNB-78, 10.3 µM (inactive) with EKVX and 9.02 µM (inactive) in the assay with HL-60.

Turning to `O=[N+]([O-])c1ccc2nc3ccscc-3c2c1`, the GI50 was 24.2 µM (inactive) with SF-295; 7.31 µM (inactive) in the assay on SK-MEL-5; 13.6 µM (inactive) in the assay on ACHN; 22.6 µM (inactive) in the assay on HT-29; 8.49 µM (inactive) in the assay with SF-539; 11.7 µM (inactive) in the assay with NCI-H23. Also, the GI50 with COLO 205 was 18.5 µM (inactive); in the assay with A549, 18.3 µM (inactive); in the assay on SW-620, 7.08 µM (inactive); with HCC 2998 it was 15.2 µM (inactive); with M14, 16 µM (inactive); in the assay with K562 it was 4.6 µM (inactive). Besides, the GI50 with SNB-78 is 23 µM (inactive); in the assay on HCT-15, 15.2 µM; in the assay with EKVX, 9.93 µM (inactive); with HL-60, 4.81 µM (inactive).

In the case of `NC(CCc1nc(-c2ccc(Cl)cc2)cs1)C(=O)O` (configuration not stated), the GI50 in the assay on SF-295, with SK-MEL-5, in the assay with ACHN, with HT-29, in the assay with NCI-H23 and with RXF 393 was > 100 µM (inactive) throughout. For the same molecule, the GI50 in the assay with COLO 205, in the assay on A549, in the assay on SW-620, with HCC 2998, in the assay on M14 and in the assay on SNB-78 was > 100 µM (inactive) each time. Also, the GI50 is 74 µM in the assay on HCT-15, > 100 µM (inactive) in the assay on EKVX and > 100 µM (inactive) in the assay with HL-60.

As for `CC(=O)NC1(c2cc3ccccc3s2)CCCCCC1`, the GI50 was 33.7 µM (inactive) in the assay on SF-295; 27.4 µM (inactive) in the assay on PC-3; 27.1 µM (inactive) in the assay on SK-MEL-5; 43.9 µM (inactive) with ACHN; 34.3 µM (inactive) with HT-29; 51.5 µM (inactive) in the assay on SF-539. Besides, the GI50 in the assay on NCI-H23 is 35.2 µM (inactive); with RXF 393, 29.6 µM (inactive); in the assay with COLO 205, 22 µM (inactive); with A549, 38.9 µM (inactive); in the assay with SW-620 it was 47.1 µM (inactive); with HCC 2998, 61.2 µM (inactive). Besides, the GI50 in the assay on MDA-MB-435 was 35.5 µM (inactive); with M14, 42 µM (inactive); with K562, 23.8 µM (inactive); in the assay with HCT-15, 33.7 µM; with NCI/ADR-RES, 38.3 µM (inactive); in the assay on EKVX, 19.1 µM (inactive). Moreover, the GI50 with HL-60 was 23.4 µM (inactive).

For `CN(C)CCn1cnc2sc3ccccc3c21`, the GI50 in the assay on SF-295, in the assay on SK-MEL-5, in the assay with ACHN, in the assay on HT-29, with SF-539 and in the assay on NCI-H23 was > 100 µM (inactive) throughout. Further, the GI50 in the assay with RXF 393 is 82.8 µM (inactive); in the assay on COLO 205, > 100 µM (inactive); in the assay with A549 it was > 100 µM (inactive); in the assay with SW-620, > 100 µM (inactive); in the assay on HCC 2998, > 100 µM (inactive); in the assay with M14, > 100 µM (inactive). For the same molecule, the GI50 in the assay on K562 is > 100 µM (inactive); with SNB-78, > 100 µM (inactive); in the assay with HCT-15 it was greater than 100 µM; in the assay on EKVX, > 100 µM (inactive).

As to `O=C1/C(=C/c2cccc([N+](=O)[O-])c2)COc2ccccc21`, the GI50 with SF-295 is 11.2 µM (inactive); with SK-MEL-5, 2.32 µM (inactive); in the assay on ACHN, 5.13 µM (inactive); in the assay with HT-29, 2.36 µM (inactive); in the assay on SF-539, 4.42 µM (inactive); with NCI-H23 it was 6.76 µM (inactive). Also, the GI50 in the assay with RXF 393 was 4.65 µM (inactive); with COLO 205 it was > 42.2 µM (inactive); in the assay on A549, 41.2 µM (inactive); in the assay on SW-620 it was 1.11 µM (active); in the assay on M14, 1.83 µM (inactive); with K562, 1.46 µM (inactive). Moreover, the GI50 in the assay with SNB-78 was 6.53 µM (inactive); in the assay with HCT-15, 1.55 µM; with EKVX, 25.6 µM (inactive); in the assay on HL-60, 2.08 µM (inactive).
